Source: article PMC8870583, “EGCG Promotes FUS Condensate Formation in a Methylation-Dependent Manner” (Cells, 2022)

Legend:
FUS^RGG3PY = target: T1, FUS^RGG3PY (Homo sapiens, UniProt P35637); assay: 1H-15N HSQC NMR titration (CSP); format: binding; details: no RNA; EGCG 10-500 µM; 30 µM protein; pH 6.0, 150 mM NaCl, 25 °C; several sites, non-specific
T1 construct: RGG3-PY region, residues 454-526, unmethylated; His6-protein A tag cut by TEV; E. coli BL21(DE3) Star
T1 sequence (P35637 454-526): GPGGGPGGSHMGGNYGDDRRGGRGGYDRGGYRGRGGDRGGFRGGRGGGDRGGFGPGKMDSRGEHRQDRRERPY

FUS RGG3PY = FUS RGG3PY (UniProt P35637 454-526); assay: NMR 1H-15N HSQC titration; 30 uM protein, 0-7.5 uM RNA; unmethylated; CSPs lower than methylated at 4:1, line broadening; 50 mM sodium succinate pH 6.0, 150 mM NaCl, 2 mM TCEP, 0.04% NaN3, 10% D2O, 25 C; details: protein: recombinant; tags: His6-protein A tag removed by TEV

Molecule: O=C(O[C@@H]1Cc2c(O)cc(O)cc2O[C@@H]1c1cc(O)c(O)c(O)c1)c1cc(O)c(O)c(O)c1 [EGCG]
- 1H-15N HSQC NMR titration (CSP) (FUS^RGG3PY): EGCG can directly interact with the RGG3-PY region of FUS

B1: (UG)12 RNA (ssRNA)
RNA: UGUGUGUGUGUGUGUGUGUGUGUG
- binding result (FUS RGG3PY): binds
